Patent publication US8394858B2, “Cyclohexane derivatives and uses thereof” (Novartis AG, priority 2009, dated 2013)

Biological target: T1, human acetyl-CoA carboxylase 2 (ACC2) (Homo sapiens, UniProt O00763)
T1 construct: The cDNA encoding amino acids 144 to 2458 of human acetyl-CoA carboxylase 2; made in house; host or cells: Sf9 insect cells (baculovirus, pFastBac1)
Assay: Acetyl-CoA carboxylase enzyme assay (malonyl-CoA formation by LC/MS/MS)
Format: biochemical
Conditions: recombinant human ACC2 (amino acids 144 to 2458), 50 μM acetyl-CoA, 120 μM ATP, 2 mM KHCO3
Description: The cDNA encoding amino acids 144 to 2458 of human acetyl-CoA carboxylase 2 (ACC2, GenBank Accession # NM_001093) was cloned into the SalI and NotI sites of pFastBac1 (Invitrogen; Carlsbad, Calif.). The resulting plasmid was used to generate a recombinant ACC2 baculovirus that was amplified and titered according to the protocols in the Bac-to-Bac baculovirus expression system manual (Invitrogen). The titered virus was used to infect Sf9 cells grown in Ex-Cell 420 serum-free medium (JRH Biosciences; Lenexa, Kans.). At 48 hours post-infection, the cells were harvested and stored at −80° C. until purification. ACC2 was purified using ammonium sulfate precipitation and anion exchange chromatography.
The enzymatic assay was run as follows: 30 μL of reaction buffer (100 mM HEPES pH 7.5, 20 mM MgCl2, 20 mM potassium citrate, 2 mM DTT) was added to a 384-well microtiter plate followed by 2 μL of the test compound (or 100% DMSO control). ACC2 protein (10 μL of a 50 nM working solution) was added to plate, which was incubated at room temperature for 15 minutes. A 30 μL addition of substrate solution (50 μM acetyl-CoA, 120 μM ATP, 2 mM KHCO3) was used to initiate the reactions which were quenched with 6% acetic acid (40 μL). ACC catalyzed malonyl-CoA formation was detected by LC/MS/MS using a Cohesive Technologies LX Series multiplex LC/MS/MS system configured with four binary pumps (Agilent Technologies; Palo Alto, Calif.), a dual arm autosampler (Leap Technologies; Cary, N.C.), and one Quattro Micro triple quadrupole mass spectrometer (Waters, Milford, Mass.), all run by Aria Software version 1.5 (Cohesive Technologies; Franklin, Mass.). Four samples were injected (20 μL) onto four Phenosphere NEXT C18 30×2 mm 5 μm columns (Phenomenex; Torrance, Calif.), eluted by four separate pumps, running identical gradients, through a column switching manifold with the one outlet fitted to the electrospray (ESI) source. Malonyl-CoA was eluted with 5 mM ammonium acetate, pH 4.5 (Buffer A) and 100% acetonitrile (Buffer B) via a step gradient. Argon was used as the collision gas and the following species were monitored via MRM detection: malonyl-CoA (853.8>346.9), internal standard (A: [^13C3]-malonyl-CoA, 857>350). The lower limit of detection is 0.3 uM for malonyl-CoA in this assay.

T1 sequence (O00763 144-2458): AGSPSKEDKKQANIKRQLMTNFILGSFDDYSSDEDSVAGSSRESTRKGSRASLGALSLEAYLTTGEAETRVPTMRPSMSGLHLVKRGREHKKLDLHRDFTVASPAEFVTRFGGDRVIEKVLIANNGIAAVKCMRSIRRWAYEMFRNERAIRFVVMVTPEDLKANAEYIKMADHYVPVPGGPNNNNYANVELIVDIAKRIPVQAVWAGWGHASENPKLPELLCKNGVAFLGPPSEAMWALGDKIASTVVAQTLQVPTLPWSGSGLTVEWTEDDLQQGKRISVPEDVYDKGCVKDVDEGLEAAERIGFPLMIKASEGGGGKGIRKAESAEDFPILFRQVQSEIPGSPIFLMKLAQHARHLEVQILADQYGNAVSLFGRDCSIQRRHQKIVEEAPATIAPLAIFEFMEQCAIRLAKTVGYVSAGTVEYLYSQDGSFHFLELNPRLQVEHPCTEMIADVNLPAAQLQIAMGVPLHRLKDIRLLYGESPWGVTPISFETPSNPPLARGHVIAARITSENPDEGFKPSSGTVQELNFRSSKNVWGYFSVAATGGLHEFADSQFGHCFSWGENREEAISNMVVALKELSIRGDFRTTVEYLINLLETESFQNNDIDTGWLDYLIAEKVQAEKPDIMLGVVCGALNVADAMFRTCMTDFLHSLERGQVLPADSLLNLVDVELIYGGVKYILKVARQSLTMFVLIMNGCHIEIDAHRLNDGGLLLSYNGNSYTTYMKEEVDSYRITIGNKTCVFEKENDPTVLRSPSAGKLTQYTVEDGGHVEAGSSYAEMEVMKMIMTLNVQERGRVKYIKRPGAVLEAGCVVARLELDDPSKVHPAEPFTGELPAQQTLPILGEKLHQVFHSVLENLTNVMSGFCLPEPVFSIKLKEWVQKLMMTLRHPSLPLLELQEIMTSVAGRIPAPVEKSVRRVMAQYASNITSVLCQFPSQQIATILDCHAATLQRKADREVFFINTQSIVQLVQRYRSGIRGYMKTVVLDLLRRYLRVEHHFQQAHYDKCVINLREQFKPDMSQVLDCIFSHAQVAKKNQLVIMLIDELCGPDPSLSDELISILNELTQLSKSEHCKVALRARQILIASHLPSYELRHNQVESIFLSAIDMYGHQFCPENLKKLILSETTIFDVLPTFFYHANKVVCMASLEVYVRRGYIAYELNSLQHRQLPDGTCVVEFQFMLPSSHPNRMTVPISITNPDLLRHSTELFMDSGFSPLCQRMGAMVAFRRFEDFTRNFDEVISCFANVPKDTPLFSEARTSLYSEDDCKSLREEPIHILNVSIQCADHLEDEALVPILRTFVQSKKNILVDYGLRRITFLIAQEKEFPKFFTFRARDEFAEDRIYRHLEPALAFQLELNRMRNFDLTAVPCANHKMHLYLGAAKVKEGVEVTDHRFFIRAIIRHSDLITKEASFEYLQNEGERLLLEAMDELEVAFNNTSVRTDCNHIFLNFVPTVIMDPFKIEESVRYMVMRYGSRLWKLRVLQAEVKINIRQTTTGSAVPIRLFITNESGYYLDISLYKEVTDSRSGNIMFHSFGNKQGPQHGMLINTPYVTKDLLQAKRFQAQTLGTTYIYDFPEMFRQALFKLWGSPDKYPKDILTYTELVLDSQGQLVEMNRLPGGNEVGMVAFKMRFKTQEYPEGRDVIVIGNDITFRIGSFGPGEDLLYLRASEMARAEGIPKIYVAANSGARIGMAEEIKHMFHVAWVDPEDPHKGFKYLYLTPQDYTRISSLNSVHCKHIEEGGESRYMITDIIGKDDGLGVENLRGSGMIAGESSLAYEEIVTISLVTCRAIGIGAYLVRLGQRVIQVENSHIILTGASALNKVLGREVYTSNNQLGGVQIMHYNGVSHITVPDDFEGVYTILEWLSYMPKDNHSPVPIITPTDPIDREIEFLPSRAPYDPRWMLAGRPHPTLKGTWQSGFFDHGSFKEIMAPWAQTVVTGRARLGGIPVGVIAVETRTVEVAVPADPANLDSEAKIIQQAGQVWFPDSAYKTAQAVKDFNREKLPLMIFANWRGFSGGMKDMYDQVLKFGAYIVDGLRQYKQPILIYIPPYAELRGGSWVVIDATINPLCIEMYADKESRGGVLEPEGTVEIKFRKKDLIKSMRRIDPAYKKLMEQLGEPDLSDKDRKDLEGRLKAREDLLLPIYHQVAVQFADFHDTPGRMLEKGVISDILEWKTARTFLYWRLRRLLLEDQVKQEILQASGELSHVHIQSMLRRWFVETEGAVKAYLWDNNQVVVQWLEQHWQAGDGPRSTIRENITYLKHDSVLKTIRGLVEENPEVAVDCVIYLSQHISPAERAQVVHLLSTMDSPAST

SMILES	IC50 [nM]
O=C(N[C@@H](c1ccccc1)C(F)(F)F)[C@H]1CC[C@H](NS(=O)(=O)c2ccc(C(F)(F)F)cc2)CC1 [Example 72]	94
C[C@H](O)[C@@H](NC(=O)[C@H]1CC[C@H](NS(=O)(=O)c2ccc(C(F)(F)F)cc2)CC1)c1ccccc1 [Example 171, (1r,4S)—N-((1S,2R)-2-Hydroxy-1-phenylpropyl)-4-(4-(trifluoromethyl)phenylsulfonamido)cyclohexancarboxamide]	90
Cc1[nH]cnc1-c1ccc(S(=O)(=O)N[C@H]2CC[C@H](C(=O)N[C@H](C)c3ccc(F)cc3)CC2)cc1 [Example 339]	25
C[C@@H](NC(=O)[C@H]1CC[C@H](NS(=O)(=O)c2ccc(-c3ccc(CN4CCOCC4)cc3)cc2)CC1)c1ccc(F)cc1 [Example 359]	52
O=C(O)CCc1ccc(-c2ccc(S(=O)(=O)N[C@H]3CC[C@H](C(=O)N4CCC[C@@H]4c4ccc(F)cc4)CC3)cc2)cc1 [Example 410]	90
O=C(O)CCc1ccc(-c2ccc(S(=O)(=O)N[C@H]3CC[C@H](C(=O)N4CCOC[C@@H]4c4ccccc4)CC3)cc2)cc1 [Example 419]	25
O=C1CN(C(=O)[C@H]2CC[C@H](NS(=O)(=O)c3ccc(-c4ccccc4)cc3)CC2)C(c2ccccc2)CN1 (some centres unmarked) [Example 428]	770
CC(C)(O)[C@@H](NC(=O)[C@]1(C)CC[C@@H](NS(=O)(=O)c2ccc(C(F)(F)F)cc2)CC1)c1ccccc1 [Example 448, (1r,4S)—N—((S)-2-Hydroxy-2-methyl-1-phenylpropyl)-1-methyl-4-(4-(trifluoromethyl)phenylsulfonamido)cyclohexanecarboxamide]	40

More lines, in order of falling IC50, values ahead:

IC50 [nM]	SMILES
25	CC(C)(O)[C@@H](NC(=O)[C@H]1CC[C@H](NS(=O)(=O)c2ccc(C(F)(F)F)cc2)CC1)c1ccccc1 [Example 1, (1r,4S)—N—((S)-2-Hydroxy-2-methyl-1-phenylpropyl)-4-(4-(trifluoromethyl)phenylsulfonamido)cyclohexanecarboxamide]
10	C[C@@H](NC(=O)[C@H]1CC[C@H](NS(=O)(=O)c2ccc(-c3ccc(CNCC(=O)O)cc3)cc2)CC1)c1ccc(F)cc1 [Example 370]
10	C[C@@H](NC(=O)[C@H]1CC[C@H](NS(=O)(=O)c2ccc(-c3ccc(CCN)cc3)cc2)CC1)c1ccc(F)cc1 [Example 378]
10	C[C@@H](NC(=O)[C@H]1CC[C@H](NS(=O)(=O)c2ccc(-c3ccc(OCCN4CCOCC4)cc3)cc2)CC1)c1ccc(F)cc1 [Example 385]
10	CC(C)(O)[C@@H](NC(=O)[C@H]1CC[C@H](NS(=O)(=O)c2ccc(-c3ccccc3)cc2)CC1)c1ccccc1 [Example 395]
10	O=C(O)CCc1ccc(-c2ccc(S(=O)(=O)N[C@H]3CC[C@H](C(=O)N4CCN(c5ccccn5)CC4c4ccccc4)CC3)cc2)cc1 (some centres unmarked) [Example 414]
